Reference: US20080210128A1, “Optical Layer including mu-oxo-bridged boron-subphthalocyanine dimer” (ORIENT CHEMICAL INDUSTRIES, LTD., priority 2007, published 2008)
≈ marks a conversion by molar mass, not a printed value. Like-named read-outs stand apart in the source and are kept apart here.

Assays:
[1] = Solubility in methyl ethyl ketone
Source text: Incidentally, a spectral photometer of UV-1700 available from Shimadzu Corporation was used.

[2] = Absorption spectrum in chloroform (spectral photometer UV-1700); type: physicochemical
[3] = Dissolution of colorant on preparing the coating agent; type: physicochemical; settings: 0.5 parts by weight colorant in methyl ethyl ketone / cyclohexanone with polymethacrylate
Protocol: 0.1 parts by weight of the Compound obtained in the Manufacturing Example 1 and 15 parts by weigh of polymethacrylate were mixed and dissolved into 50 parts by weight of methyl ethyl ketone and 35 parts by weight of cyclohexanone by stirring, and liquid coating agent was prepared.
In Comparative Example 2, a thin layer was prepared by the same procedures as Example 1 except for using a coating agent prepared by using Intermediate Compound A-1 obtained in Manufacturing Example 1 instead of using Compound 1 used in Example 1. Incidentally, the additive amount of colorant to prepare a coating agent was changed to 0.5 parts by weight. […] Therefore, a coating agent was obtained as dispersion.

Compound	Solubility ([1]; solvent: methyl ethyl ketone) [mg/mL]	maximum absorption wavelength [2] [nm]	molar absorption coefficient [2] [dm^3mol^−1cm^−1]	Solubility [1] [mg/mL]	dissolution in coating agent [3]
c1ccc2c(c1)C1=Nc3c4ccccc4c4n3[B-]3(O[B-]56n7c8c9ccccc9c7N=c7c9ccccc9c(n75)=NC5=[N+]6C(=N8)c6ccccc65)n5c(c6ccccc6c5=N4)=NC2=[N+]13 (stereo not drawn) [Compound 1, (SubPcB)2O]	1.14 (≈ 1410 µM)	532	106000	–	–
ClB1n2c3c4ccccc4c2N=c2c4ccccc4c(n21)=NC1=NC(=N3)c2ccccc21 [Intermediate Compound A-1, SubPcBCl, reference compound]	–	565	51000	0.025 (≈ 58 µM)	did not dissolve completely
(t-Bu3SubPcB)2O [Compound 2]	58.5	543	61000	–	–
SubPcBOH [Intermediate Compound B-1, reference compound]	–	562	45000	–	–
{(C8H17O)3SubPcB}2O [Compound 3]	–	543	87000	83.2	–
